Source: PMC5473904, “Epigenetic and antitumor effects of platinum(IV)-octanoato conjugates” (Scientific Reports, 2017)

How the values were obtained:
[1] = log P (octanol/water) by shake flask method; format: physicochemical; details: 0.2 M aqueous NaCl
Experimental: To quantify the hydrophobicity of the platinum complexes, the shake-flask method was used to measure partition coefficients (log P) values for octanol/water.
To determine the partition coefficient (P) the shake flask method was used. Octanol-saturated water (OSW) and water-saturated octanol (WSO) were prepared using analytical grade octanol and 0.2 M aqueous NaCl solution (to suppress hydrolysis of the chlorido complexes). […] Mixing was done by vortexing for 30 min at room temperature to establish the partition equilibrium. To separate the phases, centrifugation was done at 3000 g for 5 min. The aqueous layer was carefully separated from the octanol layer for platinum analysis. Platinum was quantified from aliquots taken from the octanol-saturated aqueous samples before and after partition by ICP-MS.

[2] = tested on: mitochondrial membrane potential Δψ m in HCT-116 cells; experiment: Mitochondrial membrane potential, TMRE staining and confocal microscopy; format: cell-based, human; details: HCT-116, 1 µM, 5 h
Experimental: The loss of Δψ m represents an early event in the apoptosis cascade that precedes the release of pro-apoptotic factors such as cytochrome c and the activation of effector caspases.
HCT-116 cells were seeded on glass bottom dishes (P50G-0-30-F, MatTek Co., Ashland, USA) at the density 3 × 10^5 cells per dish, cultured in RPMI-1640 medium (without phenol red) and incubated at 37 °C in a humidified 5% CO2 atmosphere overnight. The cells were subsequently treated with the compounds (1 μM) for 5 h. After this period, cells were washed twice with PBS and resuspended in staining medium (without Pt compound), supplemented with Hoechst 33258 and tetramethylrhodamine, ethyl ester (TMRE) from multiparametric apoptosis assay kit (Cayman Chemical, Michigan, USA) according to the manufacturer’s protocol. After 20 min of staining, the staining medium was replaced by a fresh medium (without staining dye and platinum compound).
Images of living cells were acquired with a Leica TSC SP-5X laser scanning confocal microscope (Leica Microsystems, Mannheim, Germany) using an HCX PL APO lambda blue 63.0 × 1.20 water UV objective lens corrected with an appropriate beam path (resolution 1024 × 1024, frequency 100 Hz). […] Quantification of the mean signal intensity associated with single cells was performed using software ImageJ v1.47, U.S. National Institutes of Health, Bethesda, Maryland, USA.

[3] = tested on: HDAC enzymes in HCT-116 cells; experiment: HDAC fluorimetric cellular activity assay; format: cell-based, human; details: 1 µM
Experimental: These epigenetic processes consist in downregulation of HDACs and yet other biochemical processes triggered by VPA released in cells by the reduction of the Pt(IV) prodrug. Moreover, it has also been shown[15] that non-branched MCFAs may act as HDAC inhibitors. […] HDAC activity was analyzed in HCT-116 cells and confirmed by an independent set of experiments on A2780 cells (data not shown) by using a commercial HDAC fluorimetric cellular activity kit as described in the section Materials and methods.
Figure 3 Activity of HDAC enzymes in HCT-116 cells treated with the compounds tested in the present work; their concentration was 1 µM except the concentration of free OA, which was 1 mM. […] The data represent a mean from three independent experiments, each performed in quadruplicate. The error bars are the SDs.
The activity of HDAC enzymes was analyzed in HCT-116 cells treated with compounds tested in the present work (1 µM). […] The activity of HDAC was analyzed using the HDAC fluorimetric cellular activity assay kit (Enzo Life Sciences; Farmingdale, NY) in the whole cells according to manufacturer’s instructions. […] The plates were scanned on a fluorescence reader Infinite 200 (TECAN) (360 nm excitation, 460 nm emission).

[4] = tested on: DNA methylation in HCT-116 cells; experiment: DNA methylation analysis (Imprint methylated DNA quantification kit); format: cell-based, human; details: HCT-116, 30 µM, 72 h
Experimental: Human colon adenocarcinoma cells HCT-116 were chosen as the model cellular system suitable for DNA methylation analysis because: (i) this human colorectal cancer cell line has been used as a prototypic model for analyses of the genetic basis of cancer, and the role of epigenetic changes in tumorigenesis; (ii) they have a propensity to both global DNA hypomethylation and to silence genes through promoter focal hypermethylation, [21]. HCT-116 cells were treated with the compounds at the concentrations indicated in Fig. 4A for 24 or 72 h and DNA was isolated for the complete methylation analysis as described in the experimental section. Decitabine (5-aza-2′-deoxycytidine), a hypomethylating agent which hypomethylates DNA by inhibiting DNMT, was used in these experiments as a […]. The IC50 values found for this agent in HCT-116 cells (the drug-treatment period was 72 h) was (7.5 ± 0.3) µM (Table 1).
Figure 4 Analysis of DNA methylation. (A) DNA was isolated from HCT-116 cells after the exposure to the agents at the concentrations indicated in the graph for 24 or 72 h. The levels of DNA methylation in the control was taken as 100%. The bars represent mean values from three independent experiments each performed in octuplicate. The error bars are the SDs. (B) DNMT activity in colon carcinoma cells HCT-116 treated for 24 h with the compounds tested in the present work. The DNMT activity in the control, untreated cells was taken as 100%. Error bars are the SDs and the stars at the top of bars denote a significant difference from the control with (*p < 0.05; **p < […]), calculated using […] student’s t-test. The bars represent mean values from three independent experiments, each performed in quadruplicate.
Human colon carcinoma cells (HCT-116) were seeded at the density 1.5 × 10^6 cells/dish. […] The DNA content in each sample was determined by UV spectrophotometry. DNA (200 ng) from the samples was loaded to the Imprint methylated DNA quantification kit (Sigma-Aldrich, USA). The level of methylated DNA was proportional to the absorbance measured at 450 nm.

[5] = tested on: MCF-7 human breast cancer cells; parameters: method as in PMID 25888926; details: compared with Pt(IV)diOA value of Table 1; cited from earlier work
[6] = tested on: A2780 human ovarian carcinoma cells; parameters: method as in PMID 25888926; details: compared with Pt(IV)diOA value of Table 1; cited from earlier work
[7] = tested on: A2780cisR human ovarian carcinoma cells; parameters: method as in PMID 25888926; details: compared with Pt(IV)diOA value of Table 1; cited from earlier work
[8] = parameters: method as in PMID 25888926; details: valproato complexes; cited from earlier work

With `CC(=O)[O][Pt]([NH2])([NH2])([Cl])([Cl])[O]C(C)=O` [Pt(IV)diAc, cis, cis, trans-[Pt(IV)(NH3)2Cl2(Ac)2]] the “log P” value [1] was −1.85 ± 0.09, the “Reduction in the fraction of cells with an intact Δψ m relative to untreated control” value [2] was “no reduction” and the “Efficiency to inhibit HDAC activity” value [3] was “very small”.

In the case of `N.N.[Cl][Pt][Cl]` [cisplatin, reference compound], the “Change of DNA methylation” value [4] is reported as “non-significant change”.

In the case of `CCCC(CCC)C(=O)[O][Pt]([NH2])([NH2])([Cl])([Cl])[O]C(=O)C(CCC)CCC` [Pt(IV)diVPA, cis, cis, trans-[Pt(IV)(NH3)2Cl2(VPA)2]], the IC50 [5] is listed as 900 ± 300 nM, the IC50 [6] is listed as 250 ± 90 nM and the IC50 [7] is listed as 300 ± 100 nM. For the same compound, the logP [8] was 0.25.
